# Assay results from patent US11447566B2, “Anti-tissue factor antibodies, antibody-drug conjugates, and related methods” (Iconic Therapeutics, Inc., priority 2018, dated 2022).
# Square brackets hold non-standard residues; d marks the D form. Peptide text beside a SMILES is read from it. * marks the point of attachment. Dolaproine = CO[C@@H]([C@@H]1CCCN1)[C@@H](C)C(=O)O; Dil = CC[C@H](C)[C@H](NC)[C@@H](CC(=O)O)OC; X1 = C[C@@H](N*)[C@@H](O)c1ccccc1; NMeV = CN[C@H](C(=O)O)C(C)C
# Experiments:
# [1] = test system: human thrombin generation (relipidated TF, normal pooled plasma); assay: Thrombin generation assay (TGA); assay type: biochemical; conditions: 100 nM antibody, Example 18
# Procedure: (§1) The TGA assay was performed using the calibrated-automated-thrombogram (CAT) instrument manufactured and distributed by STAGO. The test method design was equivalent to a standard CAT assay measurement, except that the plasma source was NPP in citrate/CTI. […] Relipidated TF was added to a 96-well assay plate, followed by addition of the antibody/NPP mixture. After a 10-min incubation or directly after combining the relipidated TF with antibody/NPP, thrombin generation was initiated by the addition of calcium and the thrombin substrate. The STAGO software was used to report the following parameters: Peak IIa (highest thrombin concentration generated [nM]); Lag Time (time to IIa generation [min]); ETP (endogenous thrombin potential, area under the curve [nM×min]); and ttPeak (time to Peak IIa [min]).
# as §1, with “was normal pooled plasma (NPP)” for “was NPP”, “in citrate supplemented with corn trypsin inhibitor (citrate/CTI).” for “in citrate/CTI.”
# TGA assay was performed using the calibrated-automated-thrombogram (CAT) instrument manufactured and distributed by STAGO (Diagnostica Stago SAS, Asnieres sur Seine, France). […] The anti-TF antibodies were titrated at 0, 10, 50 and 100 nM and mixed with NPP in citrate/CTI. Relipidated TF was added to a 96-well assay plate, followed by addition of the antibody/NPP mixture. After a 10-min incubation or directly after combining the relipidated TF with antibody/NPP, thrombin generation was initiated by the addition of calcium and the thrombin substrate. The STAGO software was used to report the following parameters: Peak IIa (highest thrombin concentration generated on the thrombin generation curve [nM]); Lag Time (time from assay start to the moment 10 nM of thrombin is formed [min]); ETP (endogenous thrombin potential, area under the curve [nM×min]); and ttPeak (time from assay start to Peak IIa [min]). […] As used herein, the term “thrombin generation assay” (TGA) refers to the TGA used in this example.
# HUVECs = assay: G2/M arrest (phospho-Histone H3), HUVECs; assay type: cell-based, human; conditions: 24 h treatment, with or without inflammatory cytokines
# Procedure: (§2) To further understand the resistance of endothelial cells to anti-TF ADCs, cell cycle progression was evaluated 24 h after addition of the cytokines and TF-specific ADCs. Arrest at the G2/M phase of the cell cycle was analyzed as previously described in Theunissen et al, Methods Enzymol, 2006, 409:251-284. Briefly, low-passage HUVECs (Lifeline Cell Technologies, Frederick, Md., USA), propagated in VascuLife VEGF-Mv Endothelial media (Lifeline Cell Technologies), and HCT-116 cells were seeded on 12-well plates. The next day, media was removed and replaced with fresh media (no cytokines) or media containing 5 ng/mL IL1-beta, 25 ng/mL TNF-alpha and 50 ng/mL VEGF (with cytokines). A titration of MMAE-linked ADCs or free MMAE was added to the cells. After 24 h of treatment, cells were fixed in ice-cold 70% ethanol. Subsequently, the cells were washed with flow cytometry buffer (PBS, 1% FBS, 0.1% Triton) and stained for 1 h with a 1:100 dilution of phospho-Histone H3 (Ser10) (D2C8 PE Conjugate, Cell Signaling Technology). After 2 washes, the cells were treated for 20 min with 100 μg/mL PureLink RNAse A (ThermoFisher Scientific), followed by the addition of the viability dye TO-PRO-3 Iodide (ThermoFisher Scientific). 40,000 events were collected on a Novocyte flow cytometer. In the Flowjo data analysis software cell doublets and aneuploid cells were excluded. […]
# HCT-116 cells = assay: G2/M arrest (phospho-Histone H3), HCT-116 cells; assay type: cell-based, human; conditions: 24 h treatment
# Procedure: as §2
# [2] = test system: gastric adenocarcinoma PDX; assay: Gastric adenocarcinoma patient-derived xenograft model; assay type: in vivo, athymic nude mice; conditions: end of the study (day 46)
# Procedure: TF-positive PDX models were performed in athymic nude mice (Envigo, Indianapolis, Ind.) to evaluate the efficacy of the ADCs in vivo. The animals' care was in accordance with institutional guidelines. Study animals were implanted unilaterally on the left flank with tumor fragments.
# Animals were removed from study and euthanized once tumor size reached 1200 mm^3 or skin ulceration was evident. In addition, the MTV curve for the treatment group in question was no longer shown once an animal was removed from study due to size. TGI and statistical analyses were conducted in the same manner as for the CDX studies.
molecule,measurement,setting,value
"10H10: previously described TF-specific antibody (Versteeg et al., 2008; Teplyakov et al., 2017) [reference compound]",reduction of the peak IIa concentration,[1]; 10 min antibody pre-incubation,48%
same,reduction of the peak IIa concentration,[1]; without antibody pre-incubation,34%
"CC[C@H](C)[C@@H]([C@@H](CC(=O)N1CCC[C@H]1[C@H](OC)[C@@H](C)C(=O)N[C@H](C)[C@@H](O)c1ccccc1)OC)N(C)C(=O)[C@@H](NC(=O)[C@@H](NC)C(C)C)C(C)C [MMAE, monomethyl auristatin E] (H-[NMeV]V[Dil][Dolaproine]-X1)","G2/M arrest, pH3-positive HUVECs",HUVECs,increase the phosphorylation of histone H3 to a similar extent
same,"G2/M arrest, pH3-positive HCT-116 cells",HCT-116 cells,increase the phosphorylation of histone H3 to a similar extent
TF-011 ADC,complete responders,[2],1 animals
same,tumor-free survivors,[2],5 animals
